# Source: US20240130675A1, “Methods for Treating Autism Spectrum Disorder” (The General Hospital Corporation, priority 2021, published 2024)
# Test system: youth with ASD
# Assay: 12-week randomized, double-blind, placebo-controlled trial: efficacy on autism related impairments (SRS-2, CGI-I, ABC-Social Withdrawal, CY-BOCS-PDD)
# Type: in vivo, human
# Set-up: SRS-SCI / SRS-Social Cognition / SRS-Social Awareness / SRS-Social Motivation / SRS-Social Communication / SRS-Autistic Mannerisms / ABC-Social Withdrawal: scale not given here
# Conditions: for ABC-Social Withdrawal / CY-BOCS-PDD / SRS-Autistic Mannerisms / SRS-SCI / SRS-Social Awareness / SRS-Social Cognition / SRS-Social Communication / SRS-Social Motivation / SRS-Total: MEM [N = 16]
# Method: This study was a 12-week, randomized, double-blind, placebo-controlled, parallel group clinical trial of memantine in youth with ASD. Youth with ASD who met the eligibility criteria were randomized to receive either memantine or placebo during the course of the 12-week trial. Participants underwent multimodal MRI scans prior to and upon completion of the 12-week trial. Participants were assessed weekly during the titration phase (baseline to Week 4) and at midpoint (Week 6), Week 9, and completion (Week 12) during the maintenance phase. At each study visit, safety and efficacy were assessed by administering measures of efficacy (CGI, GAF), tolerability (assessing treatment-emergent AEs), and safety (vital signs, including weight). At baseline, midpoint, and endpoint (completion/early termination) severity of autism was assessed by administering measures of autism severity (SRS-2, ABC-SW, CY-BOCS-PDD) and associated psychopathology (ADHD-RS, CDRS-R, CASI-ANX).
# Eligible participants were of both sexes, aged 8 to 17 years, with intact intellectual ability, as established by a full-scale intelligence quotient of 85 or greater based on the Vocabulary and Matrix Reasoning subtests of the Wechsler Abbreviated Scale of Intelligence-Second Edition (WASI-II (Wechsler, 2011)). Participants were required to meet DSM-IV-TR/5 diagnostic criteria for autism, as established by clinical diagnostic evaluation and to have at least moderate severity of ASD, as determined by a total raw score of 85 or greater on the informant-rated Social Responsiveness Scale-Second Edition (SRS-2; (Constantino et al., 2003)) and a score of 4 or greater on the clinician-rated National Institute of Mental Health (NIMH) Clinical Global Impression (CGI) severity scale (CGI-S; (National Institute of Mental Health, 1985)).
# In this 12-week, randomized, double-blind, placebo-controlled, parallel group clinical, ASD participants were randomized in a 1:1 ratio to receive memantine or placebo. An independent statistician created a computer-generated randomization schedule, using stratified randomization by sex (male vs. female) and race (Caucasian vs. Non-Caucasian). The Clinical Trials Pharmacy at MGH dispensed the study medication (memantine and placebo) based on the randomization schedule. The randomization schedule remained confidential throughout the study.
# Study medication was titrated to the maximum daily dose during the first 4 weeks of the trial (dose titration phase) and from there on, subjects were maintained on maximum achieved dose until the end of the trial (dose maintenance phase). Titration of the study medication was guided by a flexible titration schedule which allowed for slower titration or maintaining at a lower dose, as guided by study clinician judgment of tolerability. Study medication was administered in divided dosages. Study medication was initiated at 2.5 mg/day (raised to 5 mg/day on day 4) and was up-titrated by 5 mg/week to a maximum dose of 20 mg/day.
# The efficacy of memantine for the treatment of autism related impairments was assessed by the informant-rated Social Responsiveness Scale—Second Edition (SRS-2) as continuous outcome measure, and by the clinician-rated CGI-I subscale, as categorical outcome measure. Treatment response criteria for this trial was defined as≥25% improvement on the SRS-2 and a score of 2 or 1 on the CGI-I subscale, i.e., “much” or “very much improved.”
# Additional treatment response of autism impairment was examined for the ASD subdomains by assessing change with treatment in the severity of the SRS-2 subscales and the Children's Yale Brown Obsessive Compulsive Scale modified for PDD (CY-BOCS-PDD) (Goodman et al., 1986 (Rev 89); Scahill et al., 2006) to assess change with treatment in the ritualistic behaviors associated with ASD. […]
compound,measurement,setting,value
"CC12CC3CC(C)(C1)CC(N)(C3)C2 [MEM, memantine]","SRS-Social Awareness, ES [95% CI]","Cohen's d, MEM vs PBO",0.74
same,"SRS-Social Cognition, ES [95% CI]","Cohen's d, MEM vs PBO",0.83
same,ABC-Social Withdrawal,BL (baseline),12.5 ± 8.6
same,CY-BOCS-PDD,BL (baseline),2.9 ± 5.4
same,SRS-Autistic Mannerisms,BL (baseline),21.1 ± 5.9
same,SRS-SCI,BL (baseline),93.5 ± 17.0
same,SRS-Social Awareness,BL (baseline),14.3 ± 3.0
same,SRS-Social Cognition,BL (baseline),20.0 ± 3.9
same,SRS-Social Communication,BL (baseline),40.1 ± 8.1
same,SRS-Social Motivation,BL (baseline),19.1 ± 6.9
same,SRS-Total,BL (baseline),114.5 ± 21.3
same,ABC-Social Withdrawal,EP (endpoint),5.6 ± 5.4
same,CY-BOCS-PDD,EP (endpoint),1.9 ± 4.0
same,SRS-Autistic Mannerisms,EP (endpoint),13.4 ± 3.8
same,SRS-SCI,EP (endpoint),63.8 ± 20.0
same,SRS-Social Awareness,EP (endpoint),10.7 ± 3.0
same,SRS-Social Cognition,EP (endpoint),13.7 ± 4.5
same,SRS-Social Communication,EP (endpoint),27.0 ± 10.4
same,SRS-Social Motivation,EP (endpoint),12.4 ± 5.7
same,SRS-Total,EP (endpoint),77.0 ± 22.5
same,ABC-Social Withdrawal,MD (mean difference),−6.9 ± 7.0
same,CY-BOCS-PDD,MD (mean difference),−0.9 ± 2.1
same,SRS-Autistic Mannerisms,MD (mean difference),−7.8 ± 6.4
same,SRS-SCI,MD (mean difference),−29.8 ± 22.2
same,SRS-Social Awareness,MD (mean difference),−3.6 ± 3.9
same,SRS-Social Cognition,MD (mean difference),−6.3 ± 5.6
same,SRS-Social Communication,MD (mean difference),−13.0 ± 9.4
same,SRS-Social Motivation,MD (mean difference),−6.8 ± 5.4
same,SRS-Total,MD (mean difference),−37.6 ± 27.9
same,"≥25% ↓↓SRS + CGI-I ≤ 2, ES [95% CI]","Odds Ratio, MEM vs PBO",4.82
